Values joined by “and” are separate entries in the source; they are usually repeats but may differ in a detail not shown here. Equal values may be shown once.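 Briefly, cells in 96-well plates were exposed to five compound concentrations for 48 h, and endpoints were estimated by linear interpolation. GI50 marks 50% less growth. TGI: concentration producing complete growth inhibition.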

In PubChem BioAssay (NCI) one finds GI50 and TGI data, which are given here for ten compounds.

Test systems include IGROV1 ovarian; HOP-92 NSCLC; 786-0 renal; DU-145 prostate; MOLT-4 leukemia; SNB-75 CNS; SK-MEL-28 melanoma; OVCAR-8 ovarian.
What all share (assay): NCI tumour cell line growth inhibition, 48 h

For `C/C(=N/Nc1nc2ccccc2n1C)c1ccccn1`, the GI50 in the assay on IGROV1 ovarian was 0.0327 µM; in the assay with HOP-92 NSCLC, 0.261 µM; in the assay on 786-0 renal it was 0.0638 µM; in the assay with DU-145 prostate, 0.141 µM; in the assay on MOLT-4 leukemia, 0.0226 µM; in the assay on SNB-75 CNS it was 0.246 µM. Moreover, the GI50 in the assay with SK-MEL-28 melanoma is 0.256 µM; in the assay on OVCAR-8 ovarian, 0.118 µM. Moreover, the TGI is 12.5 µM in the assay on IGROV1 ovarian; 20 µM with HOP-92 NSCLC; 10.6 µM in the assay on 786-0 renal; 17.7 µM in the assay on DU-145 prostate; > 39.1 µM in the assay with MOLT-4 leukemia; 8.86 µM with SNB-75 CNS. Further, the figures for the TGI with SK-MEL-28 melanoma and in the assay on OVCAR-8 ovarian were 29.1 µM and 16.2 µM, respectively.

In the case of `C#CCC(Cc1cnc2nc(N)nc(N)c2n1)c1ccc(C(=O)N[C@@H](CCC(=O)O)C(=O)O)cc1` (stereo not given in full), the GI50 with IGROV1 ovarian is < 0.01 µM; with 786-0 renal, < 0.01 µM; in the assay with DU-145 prostate it was < 0.01 µM; with MOLT-4 leukemia, < 0.01 µM; in the assay on SNB-75 CNS, < 0.0502 µM; with SK-MEL-28 melanoma, 0.0901 µM. The GI50 with OVCAR-8 ovarian is < 0.01 µM. Further, the TGI with IGROV1 ovarian, with 786-0 renal, in the assay with DU-145 prostate, in the assay with MOLT-4 leukemia, in the assay with SNB-75 CNS and in the assay with SK-MEL-28 melanoma was > 100 µM in each case. Also, the TGI in the assay on OVCAR-8 ovarian was > 100 µM.

`CCC(CO)Nc1nc(NCc2ccccc2O)c2ncn(C(C)C)c2n1` (stereo not given): the GI50 with IGROV1 ovarian was 1.81 µM; in the assay on HOP-92 NSCLC, 4.97 µM; in the assay on 786-0 renal, 4.46 µM; in the assay on DU-145 prostate, 4.46 µM; with MOLT-4 leukemia, 2.91 µM; in the assay on SNB-75 CNS, 1.96 µM. For the same compound, the GI50 with SK-MEL-28 melanoma was 2.35 µM; in the assay with OVCAR-8 ovarian, 4.21 µM. Moreover, the TGI in the assay with IGROV1 ovarian was 5.64 µM; in the assay with HOP-92 NSCLC it was 26.2 µM; in the assay on 786-0 renal it was > 100 µM; in the assay with DU-145 prostate, > 100 µM; in the assay with MOLT-4 leukemia it was 12.9 µM; in the assay with SNB-75 CNS, 6.82 µM. The TGI in the assay on SK-MEL-28 melanoma was 12.8 µM; in the assay on OVCAR-8 ovarian, > 100 µM.

Take `CC(=O)[C@@]1(O)CC[C@H]2[C@@H]3C[C@H](C)C4=CC(=O)CC[C@]4(C)[C@H]3[C@@H](O)C[C@@]21C`: the TGI with IGROV1 ovarian, in the assay on HOP-92 NSCLC, in the assay with 786-0 renal, in the assay with DU-145 prostate, in the assay on MOLT-4 leukemia and with SNB-75 CNS was > 100 µM throughout. The TGI in the assay on SK-MEL-28 melanoma and in the assay on OVCAR-8 ovarian was > 100 µM each time.

Turning to `O=c1nc2n(-c3ccc(Cl)cc3)c3ccc([N+](=O)[O-])cc3cc-2c(=O)[nH]1`, the GI50 with 786-0 renal was 17.9 µM; in the assay with DU-145 prostate, 29.1 µM; in the assay with MOLT-4 leukemia it was 13.4 µM; with SNB-75 CNS, > 100 µM; in the assay with SK-MEL-28 melanoma it was 24.9 µM; in the assay with OVCAR-8 ovarian, 33.2 µM. Besides, the TGI is 37.1 µM in the assay with 786-0 renal; 79.5 µM in the assay on DU-145 prostate; > 100 µM with MOLT-4 leukemia; > 100 µM with SNB-75 CNS; 61.6 µM in the assay on SK-MEL-28 melanoma; > 100 µM with OVCAR-8 ovarian.

On to `CCOC(=O)c1[nH]c(Br)c(-c2ccc(Br)cc2)c1Br`, for which the GI50 in the assay with IGROV1 ovarian is 0.851 µM; in the assay with HOP-92 NSCLC it was 1.58 µM; in the assay with 786-0 renal, 0.535 µM; with DU-145 prostate it was 2.19 µM; with SNB-75 CNS, 0.461 µM. The TGI in the assay with IGROV1 ovarian was 6.34 µM; with HOP-92 NSCLC, 7.86 µM and 7.98 µM; in the assay on 786-0 renal it was 1.92 µM and 2.72 µM; in the assay on DU-145 prostate, 55.8 µM; with MOLT-4 leukemia it was 11.4 µM; with SNB-75 CNS, 2.68 µM and 4.41 µM. Also, the TGI with SK-MEL-28 melanoma was 22.1 µM; in the assay with OVCAR-8 ovarian it was 2.65 µM and 2.42 µM.

`Cc1ccccc1N=Nc1ccc(NC(=O)c2ccnn2C)c(C)c1`: the GI50 in the assay on IGROV1 ovarian was 25.1 µM; in the assay with HOP-92 NSCLC, 6.99 µM; in the assay with 786-0 renal it was 18.8 µM; with DU-145 prostate, > 100 µM; with SNB-75 CNS, 3.66 µM; in the assay with SK-MEL-28 melanoma it was > 100 µM. Also, the GI50 in the assay with OVCAR-8 ovarian is 98.5 µM. Besides, the TGI in the assay with IGROV1 ovarian is > 100 µM; in the assay on HOP-92 NSCLC, 34.9 µM; in the assay on 786-0 renal, > 100 µM; with DU-145 prostate it was > 100 µM; in the assay with SNB-75 CNS, 33.5 µM; with SK-MEL-28 melanoma, > 100 µM. The TGI with OVCAR-8 ovarian was > 100 µM.

On to `COc1ccc(/C=C/C(=O)c2ccc(SC)cc2)cc1OC`, for which the GI50 in the assay with IGROV1 ovarian is 4.73 µM; in the assay with HOP-92 NSCLC, 13.7 µM; in the assay on 786-0 renal, 12.5 µM; in the assay on DU-145 prostate it was 13.4 µM; in the assay on MOLT-4 leukemia, 22.4 µM; in the assay with SNB-75 CNS it was 17 µM. The GI50 in the assay with SK-MEL-28 melanoma is 18.2 µM; in the assay on OVCAR-8 ovarian it was 16.5 µM. For the same compound, the TGI is 25.2 µM in the assay with IGROV1 ovarian; 31.2 µM in the assay on HOP-92 NSCLC; 26.6 µM with 786-0 renal; 30.9 µM with DU-145 prostate; > 100 µM in the assay on MOLT-4 leukemia; 37.2 µM in the assay on SNB-75 CNS. The TGI in the assay with SK-MEL-28 melanoma came to 39.8 µM; with OVCAR-8 ovarian, 44 µM.

`C=C1C(=O)O[C@H]2[C@H]1CC/C(Cn1cc(-c3cc(C(F)(F)F)cc(C(F)(F)F)c3)nn1)=C\CC[C@@]1(C)O[C@@H]21`: the GI50 in the assay on IGROV1 ovarian was 0.841 µM; with HOP-92 NSCLC, 0.344 µM; with 786-0 renal, 0.163 µM; with DU-145 prostate it was 0.726 µM; in the assay with MOLT-4 leukemia, 0.191 µM; in the assay on SNB-75 CNS, 1.26 µM. For the same compound, the GI50 was 0.465 µM in the assay on SK-MEL-28 melanoma and 0.88 µM in the assay with OVCAR-8 ovarian. The TGI in the assay on IGROV1 ovarian worked out at 2.34 µM; with HOP-92 NSCLC, 1.44 µM; in the assay with 786-0 renal, 0.311 µM; in the assay with DU-145 prostate it was 2.02 µM; in the assay with MOLT-4 leukemia it was 0.603 µM; in the assay on SNB-75 CNS it was 2.52 µM. Moreover, the TGI in the assay with SK-MEL-28 melanoma turned out to be 1.65 µM; in the assay with OVCAR-8 ovarian, 2.2 µM.

As to `CCc1c(C#N)c(S[C@@H](C(N)=O)c2ccccc2)nc(N(C)C)c1C#N`, the GI50 in the assay on IGROV1 ovarian is 7.14 µM; in the assay with 786-0 renal it was 21.1 µM; in the assay on DU-145 prostate, > 100 µM; in the assay with SNB-75 CNS, 2.11 µM; in the assay with OVCAR-8 ovarian, 3.96 µM. For the same compound, the TGI with IGROV1 ovarian was > 100 µM; with 786-0 renal, > 100 µM; with DU-145 prostate, > 100 µM; with SNB-75 CNS it was 7.18 µM; with OVCAR-8 ovarian, > 100 µM.
